Assay results taken from paper PMC4816213 (Bioorganic & medicinal chemistry letters, 2015).

How the values were obtained:
Sigma2 = assay: radioligand competition binding
Sigma1 = assay: radioligand competition binding
β3 = β3 (Homo sapiens, UniProt P13945); assay: biochemical
DAT = DAT (Homo sapiens, UniProt Q01959); assay: biochemical
HERG = HERG (Homo sapiens, UniProt Q12809); assay: biochemical
DOR = DOR (Homo sapiens, UniProt P41143); assay: biochemical
β1 = β1 (Homo sapiens, UniProt P08588); assay: biochemical
Sequence of β1 (P08588 whole entry): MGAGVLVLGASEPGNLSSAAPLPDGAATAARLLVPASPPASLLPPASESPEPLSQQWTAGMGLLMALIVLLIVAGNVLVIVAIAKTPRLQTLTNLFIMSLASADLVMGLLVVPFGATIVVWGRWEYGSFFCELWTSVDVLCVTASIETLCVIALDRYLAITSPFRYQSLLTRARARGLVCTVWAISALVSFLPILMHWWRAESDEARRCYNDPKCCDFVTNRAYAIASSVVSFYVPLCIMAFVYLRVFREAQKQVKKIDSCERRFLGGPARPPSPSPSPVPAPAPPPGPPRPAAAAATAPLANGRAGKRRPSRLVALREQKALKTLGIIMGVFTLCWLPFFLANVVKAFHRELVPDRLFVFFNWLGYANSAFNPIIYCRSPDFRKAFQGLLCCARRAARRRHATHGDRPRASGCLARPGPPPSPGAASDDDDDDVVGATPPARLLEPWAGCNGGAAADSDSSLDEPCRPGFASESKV

NOP = NOP (Homo sapiens, UniProt P41146); assay: biochemical
Sequence of NOP (P41146 whole entry): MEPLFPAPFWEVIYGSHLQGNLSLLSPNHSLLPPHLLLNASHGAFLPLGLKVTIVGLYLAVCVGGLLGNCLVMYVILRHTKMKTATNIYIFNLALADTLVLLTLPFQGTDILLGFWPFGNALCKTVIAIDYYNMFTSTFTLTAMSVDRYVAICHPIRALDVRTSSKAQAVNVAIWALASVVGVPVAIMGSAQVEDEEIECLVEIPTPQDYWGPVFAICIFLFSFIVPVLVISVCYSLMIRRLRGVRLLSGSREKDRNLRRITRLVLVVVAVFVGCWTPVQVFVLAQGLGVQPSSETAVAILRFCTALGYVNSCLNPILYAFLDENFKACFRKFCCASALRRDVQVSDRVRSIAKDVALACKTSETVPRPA

D5 = D5 (Homo sapiens, UniProt P21918); assay: biochemical
Sequence of D5 (P21918 whole entry): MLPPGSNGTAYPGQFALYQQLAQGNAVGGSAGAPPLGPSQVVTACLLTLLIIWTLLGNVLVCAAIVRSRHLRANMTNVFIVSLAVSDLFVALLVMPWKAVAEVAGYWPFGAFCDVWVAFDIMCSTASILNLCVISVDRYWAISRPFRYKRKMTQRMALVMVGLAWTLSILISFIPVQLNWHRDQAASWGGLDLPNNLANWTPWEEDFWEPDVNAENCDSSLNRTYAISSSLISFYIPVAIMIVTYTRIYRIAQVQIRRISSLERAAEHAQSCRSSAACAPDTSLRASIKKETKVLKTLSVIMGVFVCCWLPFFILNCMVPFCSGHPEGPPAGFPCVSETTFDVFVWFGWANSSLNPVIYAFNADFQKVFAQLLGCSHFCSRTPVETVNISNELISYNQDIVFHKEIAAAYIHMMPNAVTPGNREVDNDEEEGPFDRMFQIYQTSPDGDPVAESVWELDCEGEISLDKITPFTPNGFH

PBR = assay: radioligand competition binding

Sequence of DOR (P41143 whole entry): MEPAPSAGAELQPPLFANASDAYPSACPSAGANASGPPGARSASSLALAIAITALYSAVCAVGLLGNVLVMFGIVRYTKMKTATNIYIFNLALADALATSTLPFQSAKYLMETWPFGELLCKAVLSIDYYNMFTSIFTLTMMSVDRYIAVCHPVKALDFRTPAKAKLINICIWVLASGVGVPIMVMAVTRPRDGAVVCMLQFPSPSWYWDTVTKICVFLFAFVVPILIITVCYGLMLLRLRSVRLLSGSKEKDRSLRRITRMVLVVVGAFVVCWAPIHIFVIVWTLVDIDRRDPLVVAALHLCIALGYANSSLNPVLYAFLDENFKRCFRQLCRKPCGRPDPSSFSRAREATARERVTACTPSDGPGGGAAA
Sequence of DAT (Q01959 whole entry): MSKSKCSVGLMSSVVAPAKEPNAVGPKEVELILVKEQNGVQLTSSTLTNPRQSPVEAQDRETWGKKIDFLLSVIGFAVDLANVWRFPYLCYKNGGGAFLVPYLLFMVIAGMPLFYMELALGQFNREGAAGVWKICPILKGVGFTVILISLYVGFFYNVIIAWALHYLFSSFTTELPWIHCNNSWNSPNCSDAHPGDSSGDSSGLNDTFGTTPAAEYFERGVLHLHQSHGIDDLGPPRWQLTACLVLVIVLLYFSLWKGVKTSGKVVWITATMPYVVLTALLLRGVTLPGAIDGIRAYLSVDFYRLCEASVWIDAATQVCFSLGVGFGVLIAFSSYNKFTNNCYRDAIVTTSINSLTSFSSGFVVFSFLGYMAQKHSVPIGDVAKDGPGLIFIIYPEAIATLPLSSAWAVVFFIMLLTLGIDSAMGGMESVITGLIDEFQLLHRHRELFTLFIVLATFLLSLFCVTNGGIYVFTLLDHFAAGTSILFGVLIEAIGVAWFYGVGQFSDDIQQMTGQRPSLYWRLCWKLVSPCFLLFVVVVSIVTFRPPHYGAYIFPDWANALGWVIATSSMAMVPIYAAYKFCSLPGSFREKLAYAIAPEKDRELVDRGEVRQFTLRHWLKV
Sequence of β3 (P13945 whole entry): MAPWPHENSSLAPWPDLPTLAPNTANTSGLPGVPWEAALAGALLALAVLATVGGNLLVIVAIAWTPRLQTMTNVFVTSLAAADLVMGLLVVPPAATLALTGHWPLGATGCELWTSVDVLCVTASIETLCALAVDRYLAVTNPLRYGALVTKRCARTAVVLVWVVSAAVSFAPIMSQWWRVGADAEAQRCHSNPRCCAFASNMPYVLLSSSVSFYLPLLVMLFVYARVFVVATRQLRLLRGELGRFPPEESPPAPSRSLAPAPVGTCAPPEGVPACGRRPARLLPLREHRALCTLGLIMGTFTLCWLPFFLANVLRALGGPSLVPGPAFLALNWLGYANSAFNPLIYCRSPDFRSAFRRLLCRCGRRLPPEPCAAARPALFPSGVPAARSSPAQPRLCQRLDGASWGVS
Sequence of HERG (Q12809 whole entry): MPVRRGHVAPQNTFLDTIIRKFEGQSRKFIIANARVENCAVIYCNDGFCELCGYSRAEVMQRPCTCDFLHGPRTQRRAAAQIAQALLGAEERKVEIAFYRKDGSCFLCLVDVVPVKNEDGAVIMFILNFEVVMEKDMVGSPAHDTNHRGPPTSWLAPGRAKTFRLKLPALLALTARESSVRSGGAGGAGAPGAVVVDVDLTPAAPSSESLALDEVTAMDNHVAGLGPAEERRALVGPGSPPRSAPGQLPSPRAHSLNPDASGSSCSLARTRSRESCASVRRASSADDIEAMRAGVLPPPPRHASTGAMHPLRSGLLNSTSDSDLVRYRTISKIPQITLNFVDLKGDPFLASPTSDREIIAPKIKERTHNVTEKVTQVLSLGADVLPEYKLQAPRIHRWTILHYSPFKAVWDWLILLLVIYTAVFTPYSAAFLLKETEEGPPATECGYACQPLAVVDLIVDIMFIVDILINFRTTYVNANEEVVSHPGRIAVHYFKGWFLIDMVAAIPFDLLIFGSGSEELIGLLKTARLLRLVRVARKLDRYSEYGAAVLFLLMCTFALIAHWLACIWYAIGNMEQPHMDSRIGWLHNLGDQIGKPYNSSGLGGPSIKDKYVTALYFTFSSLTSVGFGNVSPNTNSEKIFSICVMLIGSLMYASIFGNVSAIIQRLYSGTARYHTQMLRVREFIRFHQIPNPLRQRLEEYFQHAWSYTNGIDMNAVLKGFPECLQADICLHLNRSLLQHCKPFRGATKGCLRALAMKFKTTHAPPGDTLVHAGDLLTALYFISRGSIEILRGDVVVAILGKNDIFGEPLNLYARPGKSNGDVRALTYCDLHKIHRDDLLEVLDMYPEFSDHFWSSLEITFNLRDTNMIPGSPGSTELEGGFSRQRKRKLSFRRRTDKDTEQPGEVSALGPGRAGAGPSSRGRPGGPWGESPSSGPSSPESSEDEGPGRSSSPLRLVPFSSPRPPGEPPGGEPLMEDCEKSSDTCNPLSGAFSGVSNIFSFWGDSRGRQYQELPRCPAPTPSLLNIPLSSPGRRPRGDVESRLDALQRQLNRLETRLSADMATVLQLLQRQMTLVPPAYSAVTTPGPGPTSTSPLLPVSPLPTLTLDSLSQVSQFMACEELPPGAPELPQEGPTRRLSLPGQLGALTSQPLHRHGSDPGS

COc1cc(CCNCc2ccccc2OCCF)c(OC)cc1Br [compound 1, 2-(4-bromo-2,5-dimethoxyphenyl)-N-(2-(2-fluoroethoxy)benzyl)ethanamine]
Ki (Sigma2): 0.051 µM
Ki (Sigma1): 0.499 µM
Ki (β3): > 10 µM
Ki (DAT): > 10 µM
Ki (HERG): > 10 µM
Ki (DOR): > 10 µM
Ki (β1): > 10 µM
Ki (NOP): > 10 µM
Ki (D5): > 10 µM
Ki (PBR): 0.876 µM
